# pIC50: −log10 of the molar value. Counter-ions that a name gives are not always drawn.
# Biological target: T1, recombinant full-length USP7 (Homo sapiens, UniProt Q93009)
# T1 construct: A 25 μl reaction volume containing recombinant full-length USP7 (62 pM)
# Test: USP7-mediated ubiquitin-rhodamine cleavage assay
# Assay type: biochemical
# Conditions: recombinant full-length USP7 62 pM; ubiquitin-rhodamine 100 nM; 30-minute incubation with compound, 1 hour reaction at room temperature; read-out: Potency: USP7 IC50
# How it was run: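 Rhodamine fluorescence read-out after acetic acid stop; IC50 by 4-parameter nonlinear regression. Enzyme at 62 pM, substrate ubiquitin-rhodamine 100 nM final, 1 h at room temperature in the dark, after 30 min compound preincubation. Buffer: HEPES pH 7.3, NaCl, TCEP, BSA; 1% DMSO.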
# T1 sequence (Q93009 whole entry): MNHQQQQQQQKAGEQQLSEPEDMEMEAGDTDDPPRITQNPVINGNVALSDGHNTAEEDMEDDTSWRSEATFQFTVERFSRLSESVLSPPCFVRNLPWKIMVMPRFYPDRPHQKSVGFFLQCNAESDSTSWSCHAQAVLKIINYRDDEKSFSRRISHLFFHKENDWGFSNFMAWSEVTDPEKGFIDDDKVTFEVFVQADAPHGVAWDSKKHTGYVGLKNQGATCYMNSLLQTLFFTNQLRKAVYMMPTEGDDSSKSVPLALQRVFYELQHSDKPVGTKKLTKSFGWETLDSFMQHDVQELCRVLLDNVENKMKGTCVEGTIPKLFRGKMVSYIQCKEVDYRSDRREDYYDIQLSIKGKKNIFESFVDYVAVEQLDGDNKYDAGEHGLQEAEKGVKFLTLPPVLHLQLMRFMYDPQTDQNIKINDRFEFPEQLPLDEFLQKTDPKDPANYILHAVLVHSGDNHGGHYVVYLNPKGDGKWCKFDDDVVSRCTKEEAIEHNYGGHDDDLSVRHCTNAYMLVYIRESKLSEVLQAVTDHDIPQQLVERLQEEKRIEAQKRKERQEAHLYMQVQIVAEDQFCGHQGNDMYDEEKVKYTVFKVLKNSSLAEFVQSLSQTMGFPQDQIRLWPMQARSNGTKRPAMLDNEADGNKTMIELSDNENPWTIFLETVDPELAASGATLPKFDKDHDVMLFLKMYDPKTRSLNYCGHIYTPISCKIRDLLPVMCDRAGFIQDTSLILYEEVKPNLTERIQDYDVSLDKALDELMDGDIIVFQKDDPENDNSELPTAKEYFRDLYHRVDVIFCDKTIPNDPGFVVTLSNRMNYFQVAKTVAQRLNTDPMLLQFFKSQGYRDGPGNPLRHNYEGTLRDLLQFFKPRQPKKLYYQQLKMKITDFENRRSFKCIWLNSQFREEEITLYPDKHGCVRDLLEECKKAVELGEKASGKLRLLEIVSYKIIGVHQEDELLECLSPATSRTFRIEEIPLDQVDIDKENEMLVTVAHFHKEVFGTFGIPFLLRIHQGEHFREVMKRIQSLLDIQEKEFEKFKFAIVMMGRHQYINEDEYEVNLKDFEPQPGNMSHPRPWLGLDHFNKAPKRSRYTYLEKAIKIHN
row,SMILES,pIC50
1,Cc1cc(Cl)cc(-c2ccnc3cc(Cn4c(=O)ccn(C(C)(C)C)c4=O)sc23)c1O[C@H]1CCCNC1 [Example 282],> 6.00
2,"Cc1cc(Cl)cc(-c2ccnc3cc(CN4C(=O)CCCC4C(F)(F)F)sc23)c1O[C@@H]1CNC[C@@H]1F (stereo partly drawn) [Example 103, 1-((7-(5-Chloro-2-(((3R,4S)-4-fluoropyrrolidin-3-yl)oxy)-3-methylphenyl)thieno[3,2-b]pyridin-2-yl)methyl)-6-(trifluoromethyl)piperidin-2-one]",5.00 to 6.00
3,"CCC(O)c1cc2nccc(-c3cc(Cl)cc(C)c3OCC3(F)CNC3)c2s1 (stereo not drawn) [Example 35, 1-(7-(5-Chloro-2-((3-fluoroazetidin-3-yl)methoxy)-3-methylphenyl)thieno[3,2-b]pyridin-2-yl)propan-1-ol]",5.00 to 6.00
4,"Cc1cc(Cl)cc(-c2ccnc3cc(CO)sc23)c1O[C@@H]1CN[C@H](CO)C1 [Example 77, (7-(5-Chloro-2-(((3S,5S)-5-(hydroxymethyl)pyrrolidin-3-yl)oxy)-3-methylphenyl)thieno[3,2-b]pyridin-2-yl)methanol]",4.52 to 5.00
5,"Cc1cc(Cl)cc(-c2ccnc3cc(CN4C(=O)CCC4=O)sc23)c1O[C@@H]1CN[C@@H](C)C1 [Example 99, 1-((7-(5-Chloro-3-methyl-2-(((3S,5S)-5-methylpyrrolidin-3-yl)oxy)phenyl)thieno[3,2-b]pyridin-2-yl)methyl)pyrrolidine-2,5-dione]",> 6.00
6,"Cc1cc(Cl)cc(-c2ccnc3cc(CO)sc23)c1O[C@@H]1CC[C@@H](N(C)C)C1 [Example 93, (7-(5-Chloro-2-(((1R,3R)-3-(dimethylamino)cyclopentyl)oxy)-3-methylphenyl)thieno[3,2-b]pyridin-2-yl)methanol]",4.52 to 5.00

# Further lines, results first:
row,pIC50,SMILES
1,> 6.00,"Cc1cc(Cl)cc(-c2ccnc3cc(CN4C(=O)C5CCCCN5C4=O)sc23)c1O[C@@H]1CNC[C@@H]1F (stereo partly drawn) [Example 138, 2-((7-(5-Chloro-2-(((3R,4S)-4-fluoropyrrolidin-3-yl)oxy)-3-methylphenyl)thieno[3,2-b]pyridin-2-yl)methyl)tetrahydroimidazo[1,5-a]pyridine-1,3(2H,5H)-dione]"
2,> 6.00,"CCN1C[C@H]2C[C@@H]1[C@H](Oc1c(C)cc(Cl)cc1-c1ncnc3cc(CN4C(=O)C5C(C4=O)C5(C)C)sc13)C2 (stereo partly drawn) [Example 356, 3-[[4-[5-chloro-2-[[(1S,4R,5R)-3-ethyl-3-azabicyclo[2.2.1]heptan-5-yl]oxy]-3-methyl-phenyl]thieno[3,2-d]pyrimidin-6-yl]methyl]-6,6-dimethyl-3-azabicyclo[3.1.0]hexane-2,4-dione dihydrochloride]"
3,5.00 to 6.00,"Cc1cc(Cl)cc(-c2ccnc3cc(CN4C(=O)CCC4=O)sc23)c1OC1CCN(CC(F)(F)F)CC1 [Example 194, 1-((7-(5-Chloro-3-methyl-2-((1-(2,2,2-trifluoroethyl)piperidin-4-yl)oxy)phenyl)thieno[3,2-b]pyridin-2-yl)methyl)pyrrolidine-2,5-dione]"
4,5.00 to 6.00,"Cc1cc(Cl)cc(-c2ccnc3cc(CN4C(=O)C5CCCN5C4=O)sc23)c1OC1CCNCC1 (stereo not drawn) [Example 218, 2-((7-(5-Chloro-3-methyl-2-(piperidin-4-yloxy)phenyl)thieno[3,2-b]pyridin-2-yl)methyl)tetrahydro-1H-pyrrolo[1,2-c]imidazole-1,3(2H)-dione]"
5,> 6.00,"CC(=O)NCc1cc2nccc(-c3cc(Cl)cc(C)c3O[C@@H]3CNC[C@@H]3F)c2s1 [Example 91, N-((7-(5-Chloro-2-(((3R,4S)-4-fluoropyrrolidin-3-yl)oxy)-3-methylphenyl)thieno[3,2-b]pyridin-2-yl)methyl)acetamide]"
6,> 6.00,"Cc1cc(Cl)cc(-c2ccnc3cc(CN4C(=O)CCC4=O)sc23)c1O[C@@H]1CCNC[C@@H]1F [Example 209, 1-((7-(5-Chloro-2-(((3S,4R)-3-fluoropiperidin-4-yl)oxy)-3-methylphenyl)thieno[3,2-b]pyridin-2-yl)methyl)pyrrolidine-2,5-dione]"
7,5.00 to 6.00,"Cc1cc(Cl)cc(-c2ccnc3cc(CO)sc23)c1O[C@@H]1CNC[C@H]1O [Example 80, (3R,4R)-4-(4-Chloro-2-(2-(hydroxymethyl)thieno[3,2-b]pyridin-7-yl)-6-methylphenoxy)pyrrolidin-3-ol]"
8,> 6.00,"Cc1cc(Cl)cc(-c2ccnc3cc(CN4C(=O)CCC4=O)sc23)c1O[C@H]1C[C@@H]2CN[C@H]1C2 [Example 221, 1-((7-(2-(((1S,4R,6S)-2-azabicyclo[2.2.1]heptan-6-yl)oxy)-5-chloro-3-methylphenyl)thieno[3,2-b]pyridin-2-yl)methyl)pyrrolidine-2,5-dione]"
9,> 6.00,"Cc1cc(Cl)cc(-c2ncnc3cc(CN4C(=O)C5C(C4=O)C5(C)C)sc23)c1O[C@@H]1C[C@H]2CN[C@@H]1C2 (stereo partly drawn) [Example 354, 3-[[4-[2-[[(1S,4R,5R)-3-azabicyclo[2.2.1]heptan-5-yl]oxy]-5-chloro-3-methyl-phenyl]thieno[3,2-d]pyrimidin-6-yl]methyl]-6,6-dimethyl-3-azabicyclo[3.1.0]hexane-2,4-dione dihydrochloride]"
10,> 6.00,"Cc1cc(Cl)cc(-c2ncnc3cc(CN4C(=O)C5C(C4=O)C5(C)C)sc23)c1O[C@@H]1CCNC[C@H]1F (stereo partly drawn) [Example 352, 3-[[4-[5-chloro-2-[[(3R,4R)-3-fluoro-4-piperidyl]oxy]-3-methyl-phenyl]thieno[3,2-d]pyrimidin-6-yl]methyl]-6,6-dimethyl-3-azabicyclo[3.1.0]hexane-2,4-dione; 2,2,2-trifluoroacetic acid]"
11,> 6.00,"CO[C@H]1CNC[C@H]1Oc1c(C)cc(Cl)cc1-c1ccnc2cc(CN3C(=O)CCC3=O)sc12 [Example 106, 1-((7-(5-Chloro-2-(((3R,4S)-4-methoxypyrrolidin-3-yl)oxy)-3-methylphenyl)thieno[3,2-b]pyridin-2-yl)methyl)pyrrolidine-2,5-dione]"
12,> 6.00,"Cc1cc(Cl)cc(-c2ccnc3cc(CN4C(=O)CCC4=O)sc23)c1O[C@@H]1CN[C@@H](CF)C1 [Example 101, 1-((7-(5-Chloro-2-(((3S,5R)-5-(fluoromethyl)pyrrolidin-3-yl)oxy)-3-methylphenyl)thieno[3,2-b]pyridin-2-yl)methyl)pyrrolidine-2,5-dione]"

# Same assay, conditions: recombinant full-length USP7 62 pM; ubiquitin-rhodamine 100 nM; 30-minute incubation, 1 hour reaction at room temperature; read-out: Potency (USP7 IC50)
row,SMILES,pIC50
1,"COC1CCC(Oc2c(C)cc(Cl)cc2-c2ccnc3cc(Cn4c(=O)ccn(CC(F)(F)F)c4=O)sc23)CC1 (stereo not drawn) [Example 674, 3-[[7-[5-chloro-2-(4-methoxycyclohexoxy)-3-methyl-phenyl]thieno[3,2-b]pyridin-2-yl]methyl]-1-(2,2,2-trifluoroethyl)pyrimidine-2,4-dione]",> 6.00
2,"COC1CCN(C2CC(Oc3c(C)cc(Cl)cc3-c3ccnc4cc(Cn5c(=O)ccn(CC(F)(F)F)c5=O)sc34)C2)C1 (stereo not drawn) [Example 684, 3-[[7-[5-chloro-2-[3-(3-methoxypyrrolidin-1-yl)cyclobutoxy]-3-methyl-phenyl]thieno[3,2-b]pyridin-2-yl]methyl]-1-(2,2,2-trifluoroethyl)pyrimidine-2,4-dione; 2,2,2-trifluoroacetic acid]",> 6.00

# Same assay, conditions: recombinant full-length USP7 62 pM; ubiquitin-rhodamine 100 nM; 30-minute pre-incubation, 1 hour reaction at room temperature; read-out: Potency (USP7 IC50)
row,SMILES,pIC50
1,"Cc1cc(Cl)cc(-c2ccnc3cc(Cn4c(=O)ccn(C)c4=O)sc23)c1O[C@H]1CCN(C)C[C@@H]1F [Example 472, 3-[[7-[5-chloro-2-[[(3S,4S)-3-fluoro-1-methyl-4-piperidyl]oxy]-3-methyl-phenyl]thieno[3,2-b]pyridin-2-yl]methyl]-1-methyl-pyrimidine-2,4-dione; 2,2,2-trifluoroacetic acid]",> 6.00
2,"Cc1cc(Cl)cc(-c2ccnc3cc(Cn4c(=O)ccn(C)c4=O)sc23)c1OC1C(C)(C)C(N)C1(C)C (stereo not drawn) [Example 538, 3-[[7-[2-(3-amino-2,2,4,4-tetramethyl-cyclobutoxy)-5-chloro-3-methyl-phenyl]thieno[3,2-b]pyridin-2-yl]methyl]-1-methyl-pyrimidine-2,4-dione]",> 6.00
3,"Cc1cc([N+](=O)[O-])cc(-c2ccnc3cc(Cn4c(=O)ccn(CC(F)(F)F)c4=O)sc23)c1Oc1ccnn1C [Example 404, 3-[[7-[3-methyl-2-(2-methylpyrazol-3-yl)oxy-5-nitro-phenyl]thieno[3,2-b]pyridin-2-yl]methyl]-1-(2,2,2-trifluoroethyl)pyrimidine-2,4-dione; 2,2,2-trifluoroacetic acid]",> 6.00
4,"Cc1cc(Cl)cc(-c2ccnc3cc(Cn4c(=O)c(F)cn(CC(F)(F)F)c4=O)sc23)c1O[C@H]1CCCNC1 [Example 555, 3-[[7-[5-chloro-3-methyl-2-[[(3S)-3-piperidyl]oxy]phenyl]thieno[3,2-b]pyridin-2-yl]methyl]-5-fluoro-1-(2,2,2-trifluoroethyl)pyrimidine-2,4-dione]",> 6.00

# More lines, now with the values ahead:
row,pIC50,SMILES
1,> 6.00,"Cc1cc(Cl)cc(-c2ccnc3cc(Cn4c(=O)ccn(CC(F)(F)F)c4=O)sc23)c1OC1CNCC[C@@]1(C)F (stereo partly drawn) [Example 405, 3-[[7-[5-chloro-2-[[(4R)-4-fluoro-4-methyl-3-piperidyl]oxy]-3-methyl-phenyl]thieno[3,2-b]pyridin-2-yl]methyl]-1-(2,2,2-trifluoroethyl)pyrimidine-2,4-dione; 2,2,2-trifluoroacetic acid]"
2,> 6.00,"Cc1cc(Cl)cc(-c2ccnc3cc(CN4C(=O)CCC4=O)sc23)c1O[C@H]1CCCN(C2COC2)C1 [Example 449, 1-[[7-[5-chloro-3-methyl-2-[[(3S)-1-(oxetan-3-yl)-3-piperidyl]oxy]phenyl]thieno[3,2-b]pyridin-2-yl]methyl]pyrrolidine-2,5-dione]"
3,> 6.00,"Cc1cc(Cl)cc(-c2ccnc3cc(Cn4c(=O)ccn(CC(F)(F)F)c4=O)sc23)c1OCC1CNCCO1 (stereo not drawn) [Example 651, 3-[[7-[5-chloro-3-methyl-2-(morpholin-2-ylmethoxy)phenyl]thieno[3,2-b]pyridin-2-yl]methyl]-1-(2,2,2-trifluoroethyl)pyrimidine-2,4-dione; 2,2,2-trifluoroacetic acid]"

# From patent US10722514B2 (FLX Bio, Inc., priority 2017, dated 2020)
